Test results published in patent publication US20250326771A1, “PIPERAZINE DERIVATIVES USEFUL IN HIV THERAPY” (VIIV HEALTHCARE COMPANY, priority 2022, published 2025).
Read-outs that look alike come from different tables or passages of the source.

Tests used:
XIAP-BIR3 = XIAP-BIR3 (Homo sapiens (Human), UniProt P98170); assay: BIR binding assay (FRET competition), XIAP BIR3; settings: for XIAP BIR3 vs BIR2 separation window: fold separation (FS) for XIAP
Method in brief: (§1)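 Compounds tested as 15-point, 3-fold series displacing 200 nM AlexaFluor647-labelled SMAC peptide from His-tagged BIR domain (cIAP1-BIR3 50 nM; cIAP1-BIR2 and cIAP2-BIR2 325 nM; XIAP-BIR3 100 nM), pH 7.4, 60 min. Eu-W1024 (2 nM) added 30 min; emission ratio fitted for IC50.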

cIAP2-BIR2 = cIAP2-BIR2 (Homo sapiens (Human), UniProt Q13489); assay: BIR binding assay (FRET competition), cIAP2 BIR2
Method in brief: as §1

[1] = system: Jurkat HIV-luciferase clones; assay: Jurkat latency reversal assay; type: cell-based; settings: Homo sapiens, 48 h; Jurkat latency reversal assay potency; read-out: Jurkat pEC50 (converted)
Method in brief: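 Three pooled Jurkat reporter clones, each with one or two integrated HIV-luciferase proviruses, 5,000 cells/well; duplicate 14-point titrations starting at 10 μM; 48 h, 37° C, then Steady-Glo luminescence; four-parameter logistic analysis yields EC50 and percent maximal activation against DMSO vehicle.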

cIAP1-BIR2 = cIAP1-BIR2 (Homo sapiens (Human), UniProt Q13490); assay: BIR binding assay (FRET competition), cIAP1 BIR2
Method in brief: as §1

cIAP1-BIR3 = cIAP1-BIR3 (Homo sapiens (Human), UniProt Q13490); assay: BIR binding assay (FRET competition), cIAP1 BIR3; settings: for cIAP1 BIR3 vs BIR2 separation window: fold separation (FS) for cIAP1
Method in brief: as §1

XIAP-BIR2 = XIAP-BIR2 (Homo sapiens (Human), UniProt P98170); assay: BIR binding assay (FRET competition), XIAP BIR2
Method in brief: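 Competitive TR-FRET used His-tagged XIAP-BIR2 (200 nM) and 200 nM AlexaFluor647-labelled AVPIAQKSE SMAC peptide in HEPES buffer pH 7.4 with CHAPS, glycerol and DTT, incubated 60 min before 30 min with 2 nM Eu-W1024. The 615/665 nm ratio from a 15-point, 3-fold series was fit with a four-parameter model for IC50/pIC50.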

cIAP2-BIR3 = cIAP2-BIR3 (Homo sapiens (Human), UniProt Q13489); assay: BIR binding assay (FRET competition), cIAP2 BIR3; settings: for cIAP2 BIR3 vs BIR2 separation window: fold separation (FS) for cIAP2
[2] = FRET competition, read-out: XIAP BIR2 (pIC50) (converted)
[3] = FRET competition binding, read-out: XIAP BIR2 (pIC50) (converted)

Sequence of XIAP-BIR2 (P98170 124-240): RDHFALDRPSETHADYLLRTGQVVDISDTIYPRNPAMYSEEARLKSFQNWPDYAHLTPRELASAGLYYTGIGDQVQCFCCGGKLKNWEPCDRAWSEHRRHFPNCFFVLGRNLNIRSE
Sequence of XIAP-BIR3 (P98170 241-356): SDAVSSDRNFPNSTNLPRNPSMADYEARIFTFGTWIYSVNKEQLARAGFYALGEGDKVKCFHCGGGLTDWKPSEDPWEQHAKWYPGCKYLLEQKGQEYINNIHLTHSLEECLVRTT
Sequence of cIAP2-BIR2 (Q13489 158-242): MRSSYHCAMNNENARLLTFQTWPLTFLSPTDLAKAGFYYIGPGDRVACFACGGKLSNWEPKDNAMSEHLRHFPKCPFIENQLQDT
Sequence of cIAP1-BIR2 (Q13490 173-257): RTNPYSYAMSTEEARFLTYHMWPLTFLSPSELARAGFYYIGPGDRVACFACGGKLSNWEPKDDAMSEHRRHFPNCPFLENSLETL
Sequence of cIAP2-BIR3 (Q13489 238-349): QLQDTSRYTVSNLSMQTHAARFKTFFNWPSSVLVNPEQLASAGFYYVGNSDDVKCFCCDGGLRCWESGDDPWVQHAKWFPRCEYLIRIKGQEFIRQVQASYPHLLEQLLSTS
Sequence of cIAP1-BIR3 (Q13490 253-363): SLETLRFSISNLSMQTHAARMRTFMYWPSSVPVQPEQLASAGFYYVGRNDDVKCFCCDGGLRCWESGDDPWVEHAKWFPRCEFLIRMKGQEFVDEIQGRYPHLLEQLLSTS

SMILES | IC50 (XIAP-BIR3) [nM] | XIAP BIR3 vs BIR2 separation window (XIAP-BIR3) | IC50 (cIAP2-BIR2) [nM] | EC50 [1] [nM] | IC50 (cIAP1-BIR2) [nM] | IC50 (cIAP1-BIR3) [nM] | cIAP1 BIR3 vs BIR2 separation window (cIAP1-BIR3) | IC50 (XIAP-BIR2; [2]) [nM] | IC50 (cIAP2-BIR3) [nM] | cIAP2 BIR3 vs BIR2 separation window (cIAP2-BIR3) | IC50 (XIAP-BIR2; [3]) [nM] | IC50 (XIAP-BIR2) [nM]
C[C@@H]1CN(CC(=O)N2CC(C)(C)c3[nH]c(=O)c(Cc4ccc(F)cc4)cc32)[C@@H](CN2CCO[C@H](C(=O)NCC(=O)N3CCN(C[C@H]4CN[C@H](C)CN4CC(=O)N4CC(C)(C)c5[nH]c(=O)c(Cc6ccc(F)cc6)cc54)[C@H](C)C3)C2)CN1 [Compound 159, (S)-4-(((2R,5R)-1-(2-(6-(4-fluorobenzyl)-3,3-dimethyl-5-oxo-2,3,4,5-tetrahydro-1H-pyrrolo[3,2-b]pyridin-1-yl)-2-oxoethyl)-5-methylpiperazin-2-yl)methyl)-N-(2-((R)-4-(((2R,5R)-1-(2-(6-(4-fluorobenzyl)-3,3-dimethyl-5-oxo-2,3,4,5-tetrahydro-1H-pyrrolo[3,2-b]pyridin-1-yl)-2-oxoethyl)-5-methylpiperazin-2-yl)methyl)-3-methylpiperazin-1-yl)-2-oxoethyl)morpholine-2-carboxamide] | 7.94 to 15.8 | ++++ (FS>10,000) | 22.4 to 1000 | 63.1 to 316 | 22.4 to 1000 | 7.94 to 15.8 | ++ (1,000>FS>100) | 10000 to 51300 | 1.38 to 7.94 | +++ (10,000>FS>1,000) | – | –
C[C@@H]1CN(CC(=O)N2CC(C)(C)c3[nH]c(=O)c(Cc4ccc(F)cc4)cc32)[C@@H](CN2CCO[C@@H](C(=O)NCc3ccc(CNC(=O)[C@H]4CN(C[C@H]5CN[C@H](C)CN5CC(=O)N5CC(C)(C)c6[nH]c(=O)c(Cc7ccc(F)cc7)cc65)CCO4)cc3)C2)CN1 [Example 111, (2R,2′R)-N,N′-(1,4-phenylenebis(methylene))bis(4-(((2R,5R)-1-(2-(6-(4-fluorobenzyl)-3,3-dimethyl-5-oxo-2,3,4,5-tetrahydro-1H-pyrrolo[3,2-b]pyridin-1-yl)-2-oxoethyl)-5-methylpiperazin-2-yl)methyl)morpholine-2-carboxamide)] | 31.6 to 501 | +++ (10,000>FS>1,000) | 3160 to 10000 | 12.6 to 63.1 | 3160 to 10000 | 7.94 to 15.8 | +++ (10,000>FS>1,000) | – | 7.94 to 15.8 | +++ (10,000>FS>1,000) | 10000 to 51300 | –
C[C@@H]1CN(CC(=O)N2CC(C)(C)c3[nH]c(=O)c(Cc4ccc(F)cc4)cc32)[C@@H](CN2CCN(C(=O)c3cccnc3-c3ncccc3C(=O)N3CCN(C[C@H]4CN[C@H](C)CN4CC(=O)N4CC(C)(C)c5[nH]c(=O)c(Cc6ccc(F)cc6)cc54)[C@H](C)C3)C[C@H]2C)CN1 [Example 17, 1,1′-(2,2′-((3R,3′R,6R,6′R)-(((2R,2′R)-([2,2′-bipyridine]-3,3′-dicarbonyl)bis(2-methylpiperazine-4,1-diyl))bis(methylene))bis(3-methylpiperazine-6,1-diyl))bis(acetyl))bis(6-(4-fluorobenzyl)-3,3-dimethyl-1,2,3,4-tetrahydro-5H-pyrrolo[3,2-b]pyridin-5-one)] | 1.38 to 7.94 | ++++ (FS>10,000) | 22.4 to 1000 | 316 to 3310 | 22.4 to 1000 | 1.38 to 7.94 | ++ (1,000>FS>100) | – | 1.38 to 7.94 | ++ (1,000>FS>100) | 10000 to 51300 | –
C[C@@H]1CN(CC(=O)N2CC(C)(C)c3[nH]c(=O)c(Cc4ccc(F)cc4)cc32)[C@@H](CN2CCN(C(=O)CN(C)CC(=O)N3CCN(C[C@H]4CN[C@H](C)CN4CC(=O)N4CC(C)(C)c5[nH]c(=O)c(Cc6ccc(F)cc6)cc54)[C@H](C)C3)C[C@H]2C)CN1 [Example 15, 1,1′-(2,2′-((3R,3′R,6R,6′R)-(((2R,2′R)-(2,2′-(methylazanediyl)bis(acetyl))bis(2-methylpiperazine-4,1-diyl))bis(methylene))bis(3-methylpiperazine-6,1-diyl))bis(acetyl))bis(6-(4-fluorobenzyl)-3,3-dimethyl-1,2,3,4-tetrahydro-5H-pyrrolo[3,2-b]pyridin-5-one)] | 1.38 to 7.94 | – | 22.4 to 1000 | 63.1 to 316 | 22.4 to 1000 | 1.38 to 7.94 | – | – | 1.38 to 7.94 | – | 10000 to 51300 | –
C[C@@H]1CN(CC(=O)N2CC(C)(C)c3[nH]c(=O)c(Cc4ccc(F)cc4)cc32)[C@@H](CN2CCO[C@H](C(=O)NCC3CCN(C(=O)[C@@H]4CN(C[C@H]5CN[C@H](C)CN5CC(=O)N5CC(C)(C)c6[nH]c(=O)c(Cc7ccc(F)cc7)cc65)CCO4)CC3)C2)CN1 [Compound 133, (S)-4-(((2R,5R)-1-(2-(6-(4-fluorobenzyl)-3,3-dimethyl-5-oxo-2,3,4,5-tetrahydro-1H-pyrrolo[3,2-b]pyridin-1-yl)-2-oxoethyl)-5-methylpiperazin-2-yl)methyl)-N-((1-((S)-4-(((2R,5R)-1-(2-(6-(4-fluorobenzyl)-3,3-dimethyl-5-oxo-2,3,4,5-tetrahydro-1H-pyrrolo[3,2-b]pyridin-1-yl)-2-oxoethyl)-5-methylpiperazin-2-yl)methyl)morpholine-2-carbonyl)piperidin-4-yl)methyl)morpholine-2-carboxamide] | 15.8 to 31.6 | ++++ (FS>10,000) | 3160 to 10000 | 63.1 to 316 | 1000 to 3160 | 31.6 to 501 | ++ (1,000>FS>100) | 10000 to 51300 | 7.94 to 15.8 | +++ (10,000>FS>1,000) | – | –
C[C@@H]1CN(CC(=O)N2CC(C)(C)c3[nH]c(=O)c(Cc4ccc(F)cc4)cc32)[C@@H](CN2CCO[C@@H](COc3cccc(OC[C@H]4CN(C[C@H]5CN[C@H](C)CN5CC(=O)N5CC(C)(C)c6[nH]c(=O)c(Cc7ccc(F)cc7)cc65)CCO4)c3)C2)CN1 [Example 112, 1,1′-(2,2′-((3R,3′R,6R,6′R)-(((2R,2′R)-((1,3-phenylenebis(oxy))bis(methylene))bis(morpholine-2,4-diyl))bis(methylene))bis(3-methylpiperazine-6,1-diyl))bis(acetyl))bis(6-(4-fluorobenzyl)-3,3-dimethyl-1,2,3,4-tetrahydro-5H-pyrrolo[3,2-b]pyridin-5-one)] | 15.8 to 31.6 | +++ (10,000>FS>1,000) | 1000 to 3160 | 12.6 to 63.1 | 3160 to 10000 | 7.94 to 15.8 | +++ (10,000>FS>1,000) | – | 7.94 to 15.8 | +++ (10,000>FS>1,000) | 10000 to 51300 | –
C[C@@H]1CN(CC(=O)N2CC(C)(C)c3[nH]c(=O)c(Cc4ccc(F)cc4)cc32)[C@@H](CN2CCO[C@H](COCc3cccc(COC[C@@H]4CN(C[C@H]5CN[C@H](C)CN5CC(=O)N5CC(C)(C)c6[nH]c(=O)c(Cc7ccc(F)cc7)cc65)CCO4)n3)C2)CN1 [Example 84, 1,1′-(2,2′-((3R,3′R,6R,6′R)-(((2S,2'S)-(((pyridine-2,6-diylbis(methylene))bis(oxy))bis(methylene))bis(morpholine-2,4-diyl))bis(methylene))bis(3-methylpiperazine-6,1-diyl))bis(acetyl))bis(6-(4-fluorobenzyl)-3,3-dimethyl-1,2,3,4-tetrahydro-5H-pyrrolo[3,2-b]pyridin-5-one)] | 15.8 to 31.6 | ++++ (FS>10,000) | 3160 to 10000 | 0.49 to 12.6 | 1000 to 3160 | 7.94 to 15.8 | +++ (10,000>FS>1,000) | – | 7.94 to 15.8 | +++ (10,000>FS>1,000) | 10000 to 51300 | –
C[C@@H]1CN(CC(=O)N2CC(C)(C)c3ncc(Cc4ccccc4)cc32)[C@@H](CN2CCO[C@H](COc3cccc(OC[C@@H]4CN(C[C@H]5CN[C@H](C)CN5CC(=O)N5CC(C)(C)c6ncc(Cc7ccccc7)cc65)CCO4)c3)C2)CN1 [Compound 150] | 15.8 to 31.6 | ++++ (FS>10,000) | 10000 to 51300 | 12.6 to 63.1 | 3160 to 10000 | 7.94 to 15.8 | +++ (10,000>FS>1,000) | – | 7.94 to 15.8 | ++++ (FS>10,000) | – | 10000 to 51300
